From paper PMC6934550 (Scientific Reports, 2019)
“And” between values parts separate entries of the source, which are not always exact repeats. Identical values can stand only once. “Also recorded” adds a separate entry of the source. Counter-ions that a name gives are not always drawn. Like-named read-outs stand apart in the source and are kept apart here.

Assays:
[1] = system: monocyte-derived macrophages (MDMs)
in vitro [2] = conditions: African green monkey
[3] = rhesus monkey, in vivo
EBOV = conditions: cited from earlier work
[4] = human, in vivo, 10 mg/kg; cited from earlier work
[5] = rhesus monkey, in vivo; remark: listed apart in the source
[6] = system: EBOV (Makona variant, EBOV/Mak); format: cell-based, Ebola virus
in vivo = conditions: both, rhesus monkey, po; for AUC(0-t): AUClast
in vitro [7] = conditions: human
EBOV/Mak = system: EBOV/Mak; set-up: species or system Rhesus macaques; conditions: rhesus monkey, in vivo
[8] = rhesus monkey, in vivo; remark: listed apart in the source
in vitro [9] = conditions: human; remark: listed apart in the source
[10] = read-out: IC50 range over cell types
[11] = 40 mg/kg, elimination phase half-life (t1/2), range among individual animals

SMILES | cytotoxicity [1] | CC50 (in vitro [2]) [µM] | Cmax (range) ([3]; 20 mg/kg) | in vitro antiviral activity against EBOV (EBOV) | Cmax [4] [ng/mL] | Max effect [6] | IC50 [6, 10] [µM] | Cmax (in vivo; 20 mg/kg, mean) [ng/mL] | Cmax (in vivo; 40 mg/kg, mean) [ng/mL] | Tmax (in vivo; 40 mg/kg, Tmax (range)) [h] | Tmax (in vivo; 40 mg/kg, Tmax, mean) [h] | half-life (in vivo; [11]) [h] | in vitro antiviral activity against EBOV [6] | IC50 ([6]; read-out: IC50) | CC50 (in vitro [7]) [µM] | other results
CCNCc1cc(Nc2ccnc3cc(Cl)ccc23)ccc1O [N-Desethylamodiaquine hydrochloride, N-desethylamodiaquine hydrochloride] | elevated cytotoxicity | 33.1 | 203‒369 | known to have in vitro antiviral activity against EBOV | 268.7 ± 70.8 | 100% at 40 and 80% at 40 | 2.8 to 30 | 287 | 618 | 0.5 to 8 | 5 | 12 to 51 |  |  |  | AUClast and AUCinf, fold higher for DEAQ than for AQ ([3]; both, po): 2.5- to 3 fold; t1/2 ([3]; both, po, 20 mg/kg): 15 h; plasma levels of DEAQ ([5]; Chinese origin): detectable in all treated animals from both groups 2 and 3; half-life (in vivo; 20 mg/kg, t1/2, mean): 15.6 h
C[C@H]1[C@@H](O)O[C@@H]2O[C@@]3(C)CC[C@H]4[C@H](C)CC[C@@H]1[C@@]24OO3 [Dihydroartimesinin, dihydroartemisinin] |  | > 40 |  |  |  | 64% at 40 and 49% at 40 |  |  |  |  |  |  | weak or undetectable; also recorded: minimal to no in vitro antiviral activity | 31.5 µM and 35.2 µM | > 40 | 
CCN(CC)Cc1cc(Nc2ccnc3cc(Cl)ccc23)ccc1O [Amodiaquine dihydrochloride hydrate, amodiaquine dihydrochloride dihydrate] | elevated cytotoxicity | 40.1 | 7.8‒31.9 | known to have in vitro antiviral activity against EBOV | 29.2 ± 10.9 | 100% at 30 and 100% at 40 | 3.2 to 27.9 | 17.1 | 53.7 | 0.5 to 8 | 5 | 3 to 28 |  |  |  | Tmax, mean ([3]; both, po, 20 mg/kg): 3 h; in vitro EBOV inhibition (EBOV): potent EBOV inhibitor; plasma levels of AQ [5]: negligible levels of AQ in all but five plasma samples; RNA levels at necropsy (EBOV/Mak): 10^9–10^11 viral RNA copies/ml; clinical signs, febrile illness, weight loss versus control (EBOV/Mak): Clinical signs did not differ significantly between the groups; hematology and serum chemistry versus control (EBOV/Mak): followed the same trends as the control animal values; plasma viral load (RT-qPCR, plaque assay), words (EBOV/Mak): did not reduce plasma viral RNA copies or infectious virus titer; survival / efficacy (EBOV/Mak): All animals were euthanized or succumbed to disease by day 8 postexposure; also recorded: did not result in a survival benefit or decrease of disease signs; also recorded: did not result in a survival benefit or decrease of disease symptoms; also recorded: did not have a beneficial effect on survival or the symptoms of EVD; Median time to disposition (EBOV/Mak; po, 20 mg/kg): 7 days and 6 days; AUC(0-t) (in vivo; 20 mg/kg, mean): 74 ng·h/mL; Tmax (in vivo; 20 mg/kg, Tmax, mean): 5 h; AUC(0-inf) (in vivo; 40 mg/kg, AUCinf, mean): 324 ng·h/mL; AUC(0-t) (in vivo; 40 mg/kg, mean): 258 ng·h/mL; ALT and AST elevation [8]: 2.6- to 6.3 fold; blood pressure [8]: lower blood pressure readings than at predose; clinical observations [8]: hypoactivity, shivering (muscle tremors) and/or diarrhea; tolerability [8]: well-tolerated
C[C@H]1[C@H](OC(=O)CCC(=O)O)O[C@@H]2O[C@@]3(C)CC[C@H]4[C@H](C)CC[C@@H]1[C@@]24OO3 [Artesunate, artesunate] |  | > 40 |  |  |  |  |  |  |  |  |  |  | weak or undetectable; also recorded: minimal to no in vitro antiviral activity | 17.2 ± 1.2 µM | > 40 | CC50 (in vitro [9]): > 40 µM; activity against EBOV (EBOV): no activity against EBOV has been demonstrated
